Patent US20180221336A1, “DOSE SPARING KETOROLAC FORMULATIONS AND METHODS AND DEVICES FOR USE WITH SAME” (SteadyMed, Ltd., priority 2017, published 2018)
Where two headings read alike, the source gives them in different places.

Columns and labels:
[1] = clinical; details: human, plasma
[2] = Safety assessments (adverse events, vital signs, ECG, injection/infusion site) in the crossover study in healthy subjects
[3] = Simulation of plasma Ketorolac concentrations with the MMSPK population pharmacokinetic model (NONMEM); set-up: species or system human; details: population PK model parameter estimate
[4] = oral KT; literature value used in simulations; cited from earlier work
[5] = for plasma Ketorolac concentration (predose Ctrough), Geometric LSM: Treatment B four IM bolus injections every 6 hours
[6] = Treatment A (Test, N = 11): continuous SC infusion over 24 hours
[7] = Treatment A versus Treatment B, 100 * (test/reference)
[8] = Treatment A: 120 mg continuous SC infusion over 24 hours, N = 11, geom. mean (geom. CV %)
[9] = Treatment A: 120 mg continuous SC infusion over 24 hours, N = 11, mean ± SD
[10] = Treatment A, individual spline (quadratic plateau) regression, N 11
[11] = Treatment A, individual spline (quadratic plateau) regression, N 11, listed as Ketorolac tromethamine
[12] = Treatment B (Reference, N = 12): four IM bolus injections of 30 mg every 6 hours

Compound `O=C(c1ccccc1)c1ccc2n1CCC2C(=O)O` (racemic) [Ketorolac, (±)-5-benzoyl-2,3-dihydro-1H-pyrrolizine-1-carboxylic acid, compound with 2-amino-2-(hydroxymethyl)-1,3-propanediol] has a half-life ([1]; 120 mg) of about 7 h, an AUC ([1]; im, 30 mg) of 6.81 µg·h/mL and an AUC(0-t) ([1]; im, 30 mg) of 23.6 µg·h/mL. For the same compound, the Cmax ([1]; im, 30 mg) was 2.24 µg/mL, the Tmax ([1]; im, 30 mg) was 9.25 h and the Vd/F ([1]; im, 30 mg) was 30.3 ± 7.69 L. For the same compound, the half-life ([1]; im, 30 mg) was 7.02 ± 1.44 h, the AUC(0-inf) ([1]; sc, 120 mg) was 29.1 µg·h/mL and the AUC(0-t) ([1]; sc, 120 mg) was 21.5 µg·h/mL. It also gave a Cmax ([1]; sc, 120 mg) of 1.34 µg/mL, a Tmax ([1]; sc, 120 mg) of 23 h and a Vd/F ([1]; sc, 120 mg) of 29.1 ± 10.9 L. It also gave a concentration at 4 h ([1]; sc, 120 mg) of 0.617 µg/mL, a concentration at 6 h ([1]; sc, 120 mg) of 0.718 µg/mL and a concentration at 8 h ([1]; sc, 120 mg) of 0.838 µg/mL. The concentration at 10 h ([1]; sc, 120 mg) was 0.894 µg/mL, the concentration at 12 h ([1]; sc, 120 mg) was 0.946 µg/mL and the concentration at 14 h ([1]; sc, 120 mg) was 1.02 µg/mL. For the same compound, the concentration at 16 h ([1]; sc, 120 mg) was 1.05 µg/mL, the concentration at 18 h ([1]; sc, 120 mg) was 1.16 µg/mL and the concentration at 20 h ([1]; sc, 120 mg) was 1.21 µg/mL. It also gave a concentration at 22 h ([1]; sc, 120 mg) of 1.2 µg/mL, a concentration at 23 h ([1]; sc, 120 mg) of 1.23 µg/mL and a concentration at 24 h ([1]; sc, 120 mg) of 1.17 µg/mL. For the same compound, the half-life ([1]; sc, 120 mg) was 6.93 ± 0.84 h, the “infusion site adverse event” value ([2]; Treatment A, 13 minutes following completion of the 24-hour infusion, resolved in approximately 2 days, possibly related to study drug) was “One subject experienced mild infusion site pain” and the “injection site adverse event” value ([2]; Treatment B, approximately 6.5 hours after the 4th IM injection, resolved in 15 days, not related to study drug) was “Another subject experienced mild injection site hemorrhage”. The “subjects experiencing TEAEs following each treatment arm” value ([2]; each of Treatment A and Treatment B) was 2 subjects, the safety and tolerability ([2]; total dose of 120 mg via continuous SC infusion) was “safe and well tolerated” and the “vital sign, ECG, or injection/infusion site reaction results” value ([2]; whole study) was “no clinically significant trends”. For the same compound, the “subjects experiencing TEAEs” value ([2]; whole study, 12 subjects) was 4 (33%) subjects, the “deaths or serious adverse events (SAEs)” value ([2]; whole study, both treatments) was “no deaths or serious adverse events (SAEs)” and the “number of mild treatment emergent adverse events (TEAEs)” value ([2]; whole study, both treatments) was 7. For the same compound, the “CL estimate (MMSPK model)” value [3] was 2.92 L/h, the “estimated Ka for IM absorption (MMSPK model)” value [3] was 11.6 h⁻¹ and the Ka [4] was 11 h⁻¹. For the same compound, the absorption lag time [4] was 0.2 h, the “AUC0-24 Geometric LSM” value [5, 6] was 21.51 µg·h/mL and the “AUC0-last Geometric LSM” value [5, 6] was 28.26 µg·h/mL. The “overall Tss (time to steady-state)” value ([5]; Treatment A SC infusion, Helmert contrast) was 18 h, the “overall exposure (AUC0-24 and AUC0-last), SC infusion compared with IM bolus injections” value ([5]; Treatment A versus Treatment B) was “similar” and the “Cmax lower following continuous SC infusion compared to 4 IM bolus injections” value ([5]; Treatment A versus Treatment B, 120 mg total daily dose) was 40%. For the same compound, the “AUC0-24 Geometric Mean Ratio” value [5, 7] was 91.23%, the “AUC0-last Geometric Mean Ratio” value [5, 7] was 101.53% and the “Cmax—all Geometric Mean Ratio” value [5, 7] was 59.86%. The AUC0-last [5, 8] was 28.48 (30.9) μg * hr/mL, the “Cmax—all” value [5, 8] was 1.344 (25.6) μg/mL and the AUC%extrap [5, 9] was 1.96 ± 1.2860%. For the same compound, the Css [5, 9] was 1.238 ± 0.2996 µg/mL, the Kel ([5]; Treatment A: 120 mg continuous SC infusion over 24 hours, mean ± SD) was 0.1014 ± 0.01213 h⁻¹ and the CL/F ([5]; Treatment A: 120 mg continuous SC infusion over 24 hours, mean ± SD, listed as Ketorolac tromethamine) was 2.924 ± 0.9799 L/h. For the same compound, the “Plateau Concentration, Mean (SD)” value [5, 10] was 1053 (234.5) ng/mL, the “Plateau Concentration, Median (Min, Max)” value [5, 10] was 1084 ng/mL and the “Time to Steady-State, Mean (SD)” value [5, 10] was 6.30 (4.17) hr. For the same compound, the “Time to Steady-State, Median (Min, Max)” value [5, 10] was 4 h, the “Plateau Concentration, Median (Min, Max)” value [5, 11] was 1084 (572.4, 1426) ng/mL and the “Time to Steady-State, Median (Min, Max)” value [5, 11] was 3.68 (1.98, 13.63) hr. For the same compound, the “AUC0-24 Geometric LSM” value [5, 12] was 23.58 µg·h/mL, the “AUC0-last Geometric LSM” value [5, 12] was 27.83 µg·h/mL and the “plasma Ketorolac concentration (predose Ctrough), Geometric LSM” value (shortened to “plasma Ketorolac concentration”) ([5]; Hour 6) was 302.545. For the same compound, the “plasma Ketorolac concentration” value ([5]; Hour 12) was 368.216, the “plasma Ketorolac concentration” value ([5]; Hour 18) was 432.393 and the “plasma Ketorolac concentration” value ([5]; Hour 24) was 564.178. The “Ctrough (LSM) at the highest” value ([5]; following IM injections (Treatment B)) was 0.5642 µg/mL, the “Individual Tss (spline method), range” value ([5]; following SC infusion (Treatment A)) was 2.0 to 14 h and the “geometric LSM Css” value ([5]; following SC infusion (Treatment A), Helmert contrast) was 1.16 µg/mL.
